Target: T1, TcyK (Listeria monocytogenes, UniProt A0A0H3GMT4)
T1 construct: gene LMRG_01494; residues 38-286, without membrane-anchoring domain; N-terminal His-tag (pET-19b, cleavage not mentioned); codon-optimised, E. coli BL21-Gold(DE3)
Test: isothermal titration calorimetry
Format: binding

T1 sequence (A0A0H3GMT4 entry or part of it): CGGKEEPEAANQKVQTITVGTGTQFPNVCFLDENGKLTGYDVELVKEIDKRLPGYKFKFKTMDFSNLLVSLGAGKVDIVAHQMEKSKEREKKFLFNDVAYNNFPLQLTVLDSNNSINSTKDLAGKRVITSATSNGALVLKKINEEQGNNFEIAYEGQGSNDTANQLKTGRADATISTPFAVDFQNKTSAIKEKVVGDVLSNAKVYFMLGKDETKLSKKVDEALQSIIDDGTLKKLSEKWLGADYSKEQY

| SMILES | Kd [µM] |
| --- | --- |
| N[C@@H](CSSC[C@H](N)C(=O)O)C(=O)O [CSSC, cystine] | ~13 |
| N[C@@H](CS)C(=O)O [Cys, L-cysteine] | ~66.7 |

— paper PMC9239247, “Listeria monocytogenes TcyKLMN Cystine/Cysteine Transporter Facilitates Glutathione Synthesis and Virulence Gene Expression” (mBio, 2022)
